Laboratory results as given in ChEMBL document CHEMBL1124807, “Syntheses and platelet aggregation inhibitory and antithrombotic properties of [2-[(omega-aminoalkoxy)phenyl]ethyl]benzenes” (J Med Chem, 1990).

Assays:
[1] = species: Oryctolagus cuniculus; assay: In vitro inhibition of collagen induced platelet aggregation of rabbit platelet rich plasma; type: functional
[2] = target: T1, Serotonin 2 (5-HT2) receptor (Rattus norvegicus, UniProt P30994+P08909+P14842); assay: Antagonistic activity against 5-hydroxytryptamine 2 receptor on rat frontal cortex membrane.; type: functional, tissue-based
[3] = tested on: Mus musculus; assay: In vivo antithrombotic activity in mice (po); type: functional; settings: read-out: PD50
[4] = target: T1, Serotonin 2 (5-HT2) receptor; assay: Inhibition of 5-hydroxytryptamine 2 induced vasoconstriction of rat caudal artery.; type: tissue-based
[5] = tested on: Mus musculus; assay: In vivo antithrombotic activity in mice following p.o. administration.; type: functional; settings: po, read-out: PD50

IC50 ([1]; read-out: IC50) [nM] | IC50 [2] [nM] | Ki [4] [nM] | Compound | ED50 [5] [mg/kg] | other results
700 |  |  | CCN(CC)CCCCOc1ccccc1CCc1ccccc1 |  | 
2400 |  |  | c1ccc(CCc2ccccc2OCCCCN2CCCCC2)cc1 |  | 
1200 |  |  | Cc1ccccc1CCc1ccccc1OCCCCN(C)C |  | 
6200 |  |  | O=C(O)C1CCN(CCCCOc2ccccc2CCc2ccccc2)CC1 |  | 
18000 |  |  | O=C(O)C1CCCN1CCCCOc1ccccc1CCc1ccccc1 (centres undefined) |  | 
13000 |  |  | CN(CCCCOc1ccccc1CCc1ccccc1)CCCC(=O)O |  | 
2200 |  |  | OCCN1CCN(CCCCOc2ccccc2CCc2ccccc2)CC1 |  | 
620 |  |  | c1ccc(CCc2ccccc2OCCCCN2CCCC2)cc1 |  | 
29000 |  |  | CN(CCCCOc1ccccc1CCc1ccccc1)CC(=O)O |  | 
3400 | 1976 | 416 | CN(C)CCCCOc1ccc(CCc2ccccc2)cc1 |  | 
3200 | 974.6 | 67.6 | CCCCN(C)CCCCOc1ccccc1CCc1ccccc1 |  | 
1400 |  |  | CN(CCO)CCCCOc1ccccc1CCc1ccccc1 |  | 
> 50000 | 4479 | 198 | CN(CCCCOc1ccccc1CCc1ccccc1)Cc1ccccc1 |  | 
19000 | 3328.3 | 517 | CN(C)CCCCOc1cccc(CCc2ccccc2)c1 |  | 
900 |  |  | CCOc1ccccc1CCc1ccccc1OCCCCN(C)C |  | 
540 | 33.8 | 4.55 | CN(C)CCCOc1ccccc1CCc1ccccc1 |  | 

IC50 ([1]; read-out: IC50) [nM] | IC50 [2] [nM] | Ki [4] [nM] | Compound | ED50 [5] [mg/kg] | other results
1150 | 377 | 37.6 | CN(C)CCCCCOc1ccccc1CCc1ccccc1 |  | 
890 |  |  | OC1CCN(CCCCOc2ccccc2CCc2ccccc2)CC1 |  | 
 |  |  | CC(=O)Oc1ccccc1C(=O)O [ASPIRIN] |  | IC50 [1]: 23000 nM
670 | 96.2 | 6.33 | CN(C)CCOc1ccccc1CCc1ccccc1 |  | 
 |  |  | Clc1ccccc1CN1CCc2sccc2C1 [TICLOPIDINE] | 120 | 
1200 | 54.8 | 13.9 | CN(C)CC(O)COc1ccccc1CCc1ccccc1 (centres undefined) |  | 
19000 |  |  | c1ccc(CCc2ccccc2OCCCCN2CCOCC2)cc1 |  | 
2400 |  |  | NC(=O)C1CCN(CCCCOc2ccccc2CCc2ccccc2)CC1 |  | 
960 |  |  | CN(C)CCCCOc1ccccc1CCc1ccccc1O |  | 
> 50000 |  |  | CN(CCCCOc1ccccc1CCc1ccccc1)c1ccccc1 |  | 
4500 | 156.5 | 70.6 | CNCCCCOc1ccccc1CCc1ccccc1 |  | 
1500 |  |  | CN(C)CCCCOc1ccccc1CCc1ccccc1C(=O)O |  | 
1700 | 152.4 | 74.9 | CN(C)CCCCCCOc1ccccc1CCc1ccccc1 |  | 
2000 |  |  | c1ccc(CCc2ccccc2OCCCCN2CCNCC2)cc1 |  | 
> 50000 |  |  | NCCCCOc1ccccc1CCc1ccccc1 |  | 
1400 |  |  | NC(=O)C1CCCN(CCCCOc2ccccc2CCc2ccccc2)C1 (centres undefined) |  | 

Compound | IC50 ([1]; read-out: IC50) [nM] | IC50 [2] [nM] | Ki [4] [nM] | ED50 [5] [mg/kg] | other results
CN(C)CCCOc1ccc(Cl)cc1CCc1ccccc1 | 2500 | 881.4 | 25.7 |  | ED50 [3]: 21 mg/kg
CN(C)CCCOc1ccccc1CCc1ccc(Cl)c(Cl)c1 | 580 |  |  | 94 | 
CN(C)CC(COc1ccccc1CCc1cccc(F)c1)OC(=O)CCC(=O)O (centres undefined) | 1200 | 132.5 | 41.3 | 27 | 
CN(C)CCCCOc1ccccc1CCc1cccc(Cl)c1.Cl | 530 |  |  | 27 | 
CN(C)CCCCOc1ccccc1CCc1ccccc1Cl.Cl | 500 |  |  | 50 | 
CN(C)CCCCOc1ccccc1CCc1ccccc1 | 700 | 115.4 | 9.78 |  | ED50 [3]: 26 mg/kg
CN(C)CC(COc1ccccc1CCc1cccc(Cl)c1)OC(=O)CCC(=O)O (centres undefined) | 800 |  |  | 27 | 
CN(C)CC(COc1ccccc1CCc1ccccc1)OCC(=O)O (centres undefined) | 3600 |  |  | 24 | 
CN(C)CCCCOc1ccccc1CCc1ccc(F)cc1.Cl | 760 |  |  | > 50 | 
COc1cccc(CCc2ccccc2OCC(CN(C)C)OC(=O)CCC(=O)O)c1.Cl (centres undefined) [SARPOGRELATE HYROCHLORIDE] | 970 | 51.3 | 17.8 | 24 | 
CN(C)CCCOc1ccccc1CCc1ccc(N(C)C)cc1.Cl | 310 | 53.6 | 23.3 | 130 | 
COc1ccccc1CCc1ccccc1OCCCCN(C)C.Cl | 600 |  |  | 45 | 
CN(C)CCCOc1ccccc1CCc1ccc(Cl)cc1.Cl | 540 |  |  | > 50 | 
COc1cccc(CCc2ccccc2OCC(O)CN(C)C)c1 (centres undefined) | 480 | 12.5 | 1.16 | 29 | 
COc1cccc(CCc2ccccc2)c1OCCCCN(C)C | 2300 |  |  |  | ED50 [3]: 40 mg/kg
CN(C)CC(COc1ccccc1CCc1ccccc1)OCCC(=O)O (centres undefined) | 3300 |  |  | 25 | 
COc1cccc(CCc2ccccc2OCCCCN(C)C)c1.Cl | 530 | 62.2 | 13.1 | 19 | 
CN(C)CCCCOc1ccccc1CCc1cccc(F)c1.Cl | 480 |  |  | 27 | 
CN(C)CC(COc1ccccc1CCc1ccccc1)OC(=O)CCC(=O)O (centres undefined) | 2200 |  |  | 27 | 
